Data from US20100256357A1, “HETEROCYCLES USEFUL AS INHIBITORS OF CARBONIC ANHYDRASE” (Agouron Pharmaceuticals, Inc., priority 2006, published 2010).
Where two headings read alike, the source gives them in different places.

Columns and labels:
[1] = target: T1, human CA-II (Homo sapiens, UniProt P00918); experiment: Carbonic Anhydrase-II (CA-II) Fluorescence Polarization Tight Binding Assay-Kd Determination; settings: for Kd: read-out: CA-II Kd; for inhibition at 0.0025 µM: inhibitor concentration 2.5 nM
T1 construct: purchased Sigma-Aldrich C6165
Experimental: Assays were conducted in a final volume of 100 μL in 50 mM Tris/HCl (pH 7.6), 100 mM Na2SO4 and 0.005% Tween-20 in a 96-well black assay plate. […] The assay plate was
The Kd binding was calculated using GraphPad Prism and Morrison tight binding ligand equation.

[2] = target: T2, human CA-IV (Homo sapiens, UniProt P22748); experiment: Carbonic Anhydrase-IV (CA-IV) Fluorescence Polarization Assay-IC50 Determination; assay type: binding; settings: for inhibition at 0.2 µM: read-out: CA-IV: % Inh @ Min dose
T2 construct: made in house; host or cells: Escherichia coli BL21(DE3)
T2 sequence (P22748 19-284 limits assumed): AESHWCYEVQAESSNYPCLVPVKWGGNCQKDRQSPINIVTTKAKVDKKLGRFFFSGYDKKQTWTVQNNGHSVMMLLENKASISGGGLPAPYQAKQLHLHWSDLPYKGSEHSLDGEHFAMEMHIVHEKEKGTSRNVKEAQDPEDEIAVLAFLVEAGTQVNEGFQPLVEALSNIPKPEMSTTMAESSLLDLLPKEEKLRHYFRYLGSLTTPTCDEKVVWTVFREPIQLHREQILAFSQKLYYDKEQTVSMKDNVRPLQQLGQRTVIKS
How it was run: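 IC50 values come from a fluorescence polarization read-out. The CA-IV protein was zinc-supplemented during expression and purified by cation exchange then gel filtration, ending in 25 mM Tris-HCl pH 7.0 with 100 mM NaCl at 7.0 mg/mL.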

[3] = target: T1, human CA-II; experiment: Carbonic Anhydrase-II (CA-II) Fluorimetric Assay-IC50 Determination; assay type: biochemical; settings: for inhibition at 0.1 µM: CA II Min dose 100 nM; for inhibition at 0.1 µM / inhibition at 0.01 µM / inhibition at 0.0025 µM: read-out: CAII % Inh @ Min dose; for inhibition at 0.01 µM: CA II Min dose 10 nM; for inhibition at 0.0025 µM: Min dose 2.5 nM
How it was run: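 Enzyme activity is read fluorimetrically at 25° C (ex 488 nm / em 538 nm) as the rate at which human CA-II hydrolyses fluorescein diacetate. The buffer is Tris/HCl (50 mM, pH 7.6) with 100 mM Na2SO4 and 0.005% Tween-20. Inhibitors run in duplicate over 11 threefold dilutions, […]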

[4] = target: T3, human CA-XII (Homo sapiens, UniProt O43570); experiment: Carbonic Anhydrase-XII (CA-XII) Fluorimetric Assay-IC50 Determination; assay type: biochemical; settings: for inhibition at 1 µM: read-out: % inh CAXII @ 1 uM; for IC50: read-out: CAXII IC 50
T3 construct: made in house; host or cells: Escherichia coli AD494 (DE3)
T3 sequence (O43570 30-289 limits assumed): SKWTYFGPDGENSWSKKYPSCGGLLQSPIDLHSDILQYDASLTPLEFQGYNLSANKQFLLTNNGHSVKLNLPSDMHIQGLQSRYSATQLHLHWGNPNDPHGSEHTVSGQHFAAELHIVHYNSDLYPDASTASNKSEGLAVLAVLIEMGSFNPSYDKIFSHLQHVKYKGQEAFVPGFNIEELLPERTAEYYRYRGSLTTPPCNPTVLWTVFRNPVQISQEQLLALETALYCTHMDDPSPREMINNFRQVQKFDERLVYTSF
Experimental: Carbonic Anhydrase-XII (CA-XII) Fluorimetric Assay-IC50 Determination
The cells were grown in LB (Biomyx) supplemented with 800 uM ZnCl2 at 37° C. until an O.D.600 of 0.7, at which point the cells were induced with 100 uM IPTG for 20 hours at 20° C. The frozen pellet was resuspended in 50 mM MES pH 6.0, 100 mM NaCl, 800 uM ZnCl2 and EDTA-Free protease inhibitors (Roche). The cells were lysed with a microfluidizer and the lysate was spun at 40,000 rpm for 45 minutes at 4° C. The soluble fraction was then put over a 100 ml SP-Sepharose High Performance (GE Healthcare) column and eluted with a 50 mM MES pH 6.0, 750 mM NaCl gradient.
Compounds were diluted in DMSO at the concentration of 1 mM, then 50 μM and transferred to a 96-well plate for further dilutions (1:3 dilution, 11 points) in duplicate. Final compound highest concentration in CA-XII Fluorimetric assay is 1 μM. Assays were conducted in a final volume of 100 μL in 50 mM Tris/HCl (pH 7.6), 100 mM Na2SO4 and 0.005% Tween-20 in a 96-well black assay plate. Fluorescein diacetate was used as the substrate. Enzyme inhibition was determined by pipetting 8 μL of human CA-XII (50 nM) into assay plate contained 2 μL of compound and 2 μL of substrate (10 μM) in 88 μL of assay buffer.

Row | Compound | Kd [1] | inhibition at 0.2 µM ([2]; CA-IV Min dose 200 nM) | IC50 ([2]; read-out: CA-IV IC50) | inhibition at 0.1 µM [3] | inhibition at 1 µM [4] | IC50 [4] | further results
1 | N#CCCN(C(=O)c1nc(Cc2ccccc2)n(-c2ccc(S(N)(=O)=O)cc2)n1)C1CC1 [Example R-13, 1-[4-(aminosulfonyl)phenyl]-5-benzyl-N-(2-cyanoethyl)-N-cyclopropyl-1H-124-triazole-3-carboxamide] | 0.644 nM | 63.6% | 208 nM | 100% |  |  | 
2 | CC1(C)COCN1C(=O)c1nc(Cc2ccccc2)n(-c2ccc(S(N)(=O)=O)cc2)n1 [Example R-6, 4-(5-benzyl-3-[(44-dimethyl-13-oxazolidin-3-yl)carbonyl]-1H-124-triazol-1-yl)benzenesulfonamide] | 0.325 nM | 58.2% | 180 nM |  |  |  | inhibition at 0.01 µM [3]: 97%
3 | CCOC(=O)c1cc(C)n(-c2ccc(S(N)(=O)=O)cc2)n1 [GG-1, Ethyl 1-[4-(Aminosulfonyl)phenyl]-5-methyl-1H-pyrazole-3-carboxylate] |  |  |  |  | 51% | 896 nM | IC50 ([2]; read-out: IC50_CAIV): ≥ 5000 nM
4 | CCOC(=O)c1nn(-c2ccc(S(N)(=O)=O)cc2)c2c1CNCC2 [EE-1g, ethyl 1-[4-(aminosulfonyl)phenyl]-4,5,6,7-tetrahydro-1H-pyrazolo[4,3-c]pyridine-3-carboxylate] |  |  |  |  | 31% | > 1000 nM | 
5 | CN(C)[C@H]1CCN(C(=O)c2nc(Cc3ccccc3)n(-c3ccc(S(N)(=O)=O)cc3)n2)C1 [Example R-23, 4-(5-benzyl-3-{[(3S)-3-(dimethylamino)pyrrolidin-1-yl]carbonyl}-1H-124-triazol-1-yl)benzenesulfonamide] | 0.294 nM | 40.3% | 376 nM | 99% |  |  | 
6 | COc1cccc(CNC(=O)c2nc(Cc3ccccc3)n(-c3ccc(S(N)(=O)=O)cc3)n2)c1 [Example R-22, 1-[4-(aminosulfonyl)phenyl]-5-benzyl-N-(3-methoxybenzyl)-1H-124-triazole-3-carboxamide] | 0.091 nM | 53.6% | 361 nM | 100% |  |  | 
7 | CCCCN(C)C(=O)c1nc(Cc2ccccc2)n(-c2ccc(S(N)(=O)=O)cc2)n1 [Example R-3, 1-[4-(aminosulfonyl)phenyl]-5-benzyl-N-butyl-N-methyl-1H-124-triazole-3-carboxamide] | 0.451 nM | 66.4% | 88 nM | 101% |  |  | 
8 | CCCCCN(C)C(=O)c1nc(Cc2ccccc2)n(-c2ccc(S(N)(=O)=O)cc2)n1 [Example R-1, 1-[4-(aminosulfonyl)phenyl]-5-benzyl-N-methyl-N-pentyl-1H-124-triazole-3-carboxamide] | 0.56 nM | 68.6% | 86 nM | 100% |  |  | 
9 | NS(=O)(=O)c1ccc(-n2nc(C(=O)NCC3CCCCC3)nc2Cc2ccccc2)cc1 [Example R-17, 1-[4-(aminosulfonyl)phenyl]-5-benzyl-N-(cyclohexylmethyl)-1H-124-triazole-3-carboxamide] | 0.067 nM | 56.9% | 242 nM | 101% |  |  | 
10 | CC(C)OCCNCc1nc(Cc2ccccc2)n(-c2ccc(S(N)(=O)=O)cc2F)n1 [Example T-79, 4-(5-benzyl-3-{[(2-isopropoxyethyl)amino]methyl}-1H-124-triazol-1-yl)-3-fluorobenzenesulfonamide] |  |  |  |  |  |  | inhibition at 0.0025 µM [1]: 44%
11 | NS(=O)(=O)c1ccc(-n2nc(C(=O)NCc3n[nH]c4c3CCC4)nc2Cc2ccccc2)cc1 [Example R-11, 1-[4-(aminosulfonyl)phenyl]-5-benzyl-N-(1456-tetrahydrocyclopenta[c]pyrazol-3-ylmethyl)-1H-124-triazole-3-carboxamide] | 0.091 nM | 64.7% | 202 nM | 99% |  |  | 
12 | NS(=O)(=O)c1ccc(-n2nc(C(=O)N(CCO)Cc3ccccc3)nc2Cc2ccccc2)cc1 [Example R-2, 1-[4-(aminosulfonyl)phenyl]-N5-dibenzyl-N-(2-hydroxyethyl)-1H-124-triazole-3-carboxamide] | 0.621 nM | 57.7% | 87 nM |  |  |  | inhibition at 0.01 µM [3]: 87%
13 | NS(=O)(=O)c1ccc(-n2nc(CNCc3cc(F)ccc3F)nc2Cc2ccccc2)c(F)c1 [Example T-60, 4-(5-benzyl-3-{[(25-difluorobenzyl)amino]methyl}-1H-124-triazol-1-yl)-3-fluorobenzenesulfonamide] |  |  |  |  |  |  | inhibition at 0.0025 µM [1]: 57%
14 | Cc1nc(C(=O)O)nn1-c1ncc(S(N)(=O)=O)cn1 [Example I-5b, 1-[5-(aminosulfonyl)pyrimidin-2-yl]-5-methyl-1H-1,2,4-triazole-3-carboxylic acid] |  |  |  |  | 46% | > 1000 nM | IC50 ([2]; read-out: IC50_CAIV): > 1000 nM; IC50 ([3]; read-out: IC50—CAII): 57.9 nM
15 | CN(CC1CC1)C(=O)c1nc(Cc2ccccc2)n(-c2ccc(S(N)(=O)=O)cc2)n1 [Example R-20, 1-[4-(aminosulfonyl)phenyl]-5-benzyl-N-(cyclopropylmethyl)-N-methyl-1H-124-triazole-3-carboxamide] | 0.805 nM | 65.2% | 355 nM | 100% |  |  | 

The next lines start with results.

Row | Kd [1] | inhibition at 0.2 µM ([2]; CA-IV Min dose 200 nM) | IC50 ([2]; read-out: CA-IV IC50) | inhibition at 0.1 µM [3] | inhibition at 1 µM [4] | IC50 [4] | Compound | further results
16 |  |  |  |  | 99% | 25.8 nM | NS(=O)(=O)c1ccc(-n2nc(C(=O)O)nc2Cc2ccccc2)cc1 [a-5, 1-[4-(Aminosulfonyl)phenyl]-5-benzyl-1H-1,2,4-triazole-3-carboxylic acid] | 
17 | 0.608 nM |  | 130 nM |  |  |  | Cc1ccc(C)c(Cn2cc(C(F)(F)F)nc2-c2ccc(S(N)(=O)=O)cc2)c1 [JJJ-1, 4-[1-(25-dimethylbenzyl)-4-(trifluoromethyl)-1H-imidazol-2-yl]benzenesulfonamide] | inhibition at 0.2 µM ([2]; Min dose 200 nM): 56%; inhibition at 0.0025 µM [3]: 46%
18 |  |  |  |  | 96% | 66.5 nM | Cc1cc(C(=O)N(C)C)nn1-c1ccc(S(N)(=O)=O)cn1 [MM-1b, 1-[5-(aminosulfonyl)pyridin-2-yl]-N,N,5-trimethyl-1H-pyrazole-3-carboxamide] | IC50 ([2]; read-out: IC50_CAIV): 2390 nM
19 |  |  |  |  | 95% | 73.8 nM | CCOC(=O)c1nc(Cc2ccccc2)n(-c2ccc(S(N)(=O)=O)cc2)n1 [a-4, Ethyl 1-[4-(Aminosulfonyl)phenyl]-5-benzyl-1H-1,2,4-triazole-3-carboxylate] | 
20 |  |  |  |  | 89% | 119 nM | NS(=O)(=O)c1ccc(-n2nc(CN3CCOCC3)c3c2CCCC3)cc1 [II-1b, 4-[3-(morpholin-4-ylmethyl)-4,5,6,7-tetrahydro-1H-indazol-1-yl]benzenesulfonamide] | IC50 ([2]; read-out: IC50_CAIV): ≥ 5000 nM
21 | 0.552 nM |  | 309 nM |  |  |  | Cc1cc(Cn2cc(C(F)(F)F)nc2-c2ccc(S(N)(=O)=O)cc2)ccc1F [JJJ-2, 4-[1-(4-fluoro-3-methylbenzyl)-4-(trifluoromethyl)-1H-imidazol-2-yl]benzenesulfonamide] | inhibition at 0.2 µM ([2]; Min dose 200 nM): 45%; inhibition at 0.0025 µM [3]: 37%
22 | 1.39 nM |  | 440 nM |  |  |  | NS(=O)(=O)c1ccc(-c2nc(C(F)(F)F)cn2Cc2cccc(OC(F)F)c2)cc1 [JJJ-4, 4-{1-[3-(difluoromethoxy)benzyl]-4-(trifluoromethyl)-1H-imidazol-2-yl]benzenesulfonamide] | inhibition at 0.2 µM ([2]; Min dose 200 nM): 29%; inhibition at 0.0025 µM [3]: 39%
23 | 0.369 nM |  | 346 nM |  |  |  | Cc1ccccc1Cn1cc(C(F)(F)F)nc1-c1ccc(S(N)(=O)=O)cc1 [JJJ-3, 4-[1-(2-methylbenzyl)-4-(trifluoromethyl)-1H-imidazol-2-yl]benzenesulfonamide] | inhibition at 0.2 µM ([2]; Min dose 200 nM): 36%; inhibition at 0.0025 µM [3]: 47%
24 |  |  |  |  | 86% | 166 nM | Cc1cc(C(=O)N2CCN(C)CC2)nn1-c1ccc(S(N)(=O)=O)cn1 [MM-1c, 6-{5-methyl-3-[(4-methylpiperazin-1-yl)carbonyl]-1H-pyrazol-1-yl}pyridine-3-sulfonamide] | IC50 ([2]; read-out: IC50_CAIV): 2950 nM
